From PubChem BioAssay (NCI)
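A five-concentration, 48-hour dose response in 96-well plates underlies each endpoint, interpolated linearly between surrounding concentrations. GI50 marks 50% less growth. TGI denotes the concentration required for complete inhibition of growth.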

How the values were obtained:
Assay in all cases: NCI-60 cell line screen, 48 h
[1] = system: IGROV1 ovarian
[2] = system: SNB-75 CNS
[3] = system: CCRF-CEM leukemia
[4] = system: ACHN renal
[5] = system: MALME-3M melanoma
[6] = system: SNB-19 CNS
[7] = system: BT-549 breast
[8] = system: HCT-15 colon
[9] = system: SW-620 colon
[10] = system: SF-539 CNS

Row | SMILES | TGI [1] | TGI [2] | TGI [3] | TGI [4] | TGI [5] | TGI [6] | TGI [7] | TGI [8] | TGI [9] | TGI [10] | GI50 [1] | GI50 [2] | GI50 [3] | GI50 [4] | GI50 [5] | GI50 [6] | GI50 [7] | GI50 [8] | GI50 [9] | GI50 [10]
1 | O=C(c1ccccc1Br)C(F)(F)F | > 100 µM | > 100 µM | > 100 µM | > 100 µM | > 100 µM | > 100 µM | > 100 µM | > 100 µM | > 100 µM | > 100 µM |  |  |  |  |  |  |  |  |  | 
2 | Clc1ccc2[nH]cc(-c3nnnn3-c3ccccc3)c2c1 | > 77 µM | 30.8 µM | > 100 µM | > 100 µM | > 56.5 µM | > 100 µM | 68.9 µM | > 100 µM | > 100 µM | 39 µM | 29.4 µM | 6.25 µM | 19.3 µM | 24.9 µM | 13.5 µM | 38.4 µM | 22.2 µM | 12 µM | 14.9 µM | 16.5 µM
3 | C[C@@H]1CC[C@@H]2[C@@H]1[C@H](OC(=O)/C=C/c1ccccc1)[C@]1(C3CCCCC3)C[C@@H](OC(=O)CO)[C@@]2(C)O1 | 15 µM | 14.7 µM | 14.1 µM |  | 7.21 µM | 13.6 µM | 0.729 µM | 7.93 µM | 16.9 µM | 18.5 µM | 3.84 µM | 1.09 µM | 4.45 µM |  | 2.48 µM | 3.94 µM | 0.0337 µM | 2.44 µM | 4.43 µM | 5.48 µM
4 | Cn1cc(-c2csc(-c3c[nH]c4ccc(F)cc34)n2)c2cnccc21 | 3.09 µM | 2.85 µM |  | 3.12 µM | 3.46 µM | 3.52 µM | 3.06 µM | 3.36 µM | 4.09 µM | 3.04 µM | 1.59 µM | 1.5 µM |  | 1.74 µM | 1.94 µM | 1.95 µM | 1.63 µM | 1.67 µM | 2.12 µM | 1.63 µM
5 | COc1ccc2c(c1)C(=O)c1c-2c(N2CCN(C(=O)CNCCNCCO)CC2)nc2ccccc12 | 4.73 µM |  | 5.22 µM | 24.9 µM | 5.97 µM | 28.4 µM | 12.6 µM | 22.4 µM | 3.28 µM | 10.6 µM | 1.72 µM |  | 1.98 µM | 11 µM | 2.55 µM | 11.1 µM | 3.67 µM | 7.81 µM | 1.73 µM | 3.08 µM
6 | CCOC(=O)Nc1ccc(-c2nc(-c3cccc(OCCN4CCOCC4)c3)c(-c3ccnc(Br)c3)[nH]2)cc1 | > 100 µM | 6.91 µM | > 100 µM | > 100 µM | 3.46 µM | > 100 µM | > 100 µM |  | > 100 µM | 7.48 µM | 3.65 µM | 1.34 µM | 2.94 µM | 3.06 µM | 1.6 µM | 3.81 µM | 2.9 µM |  | 3.42 µM | 2.08 µM
7 | COc1cc(-c2cc(-c3cc4c([nH]c5ccccc54)c(-c4cc(OC)c(OC)c(OC)c4)n3)cc(-c3ccccc3)n2)cc(OC)c1OC | > 100 µM |  | > 100 µM | > 100 µM | 70.9 µM | > 100 µM | 91.2 µM | > 100 µM | > 100 µM | 44.4 µM | 6.44 µM |  | 3.6 µM | 4.57 µM | 6.3 µM | 9.92 µM | 6.74 µM | 3.37 µM | 3.62 µM | 4.97 µM
8 | CN(C)CC[PH+](c1ccccc1)c1ccccc1.CN(C)CC[PH+](c1ccccc1)c1ccccc1.[Cl-].[Pd+2] | > 100 µM |  | > 100 µM | > 100 µM | > 100 µM | > 100 µM | > 100 µM | > 100 µM | > 100 µM | > 100 µM | > 100 µM |  | 23.9 µM | > 100 µM | > 100 µM | > 100 µM | > 100 µM | > 100 µM | > 100 µM | > 100 µM
9 | COc1cc2c(cc1OCCCNC(=O)c1cccc3c(=O)c4ccccc4[nH]c13)N=C[C@@H]1CCCN1C2=O | > 33.5 µM |  |  | > 100 µM | 0.388 µM | > 45.7 µM | < 0.0437 µM | > 100 µM | 23.6 µM | < 0.01 µM |  |  | < 0.01 µM | 0.0197 µM |  | < 0.0206 µM | < 0.01 µM | 0.114 µM | < 0.01 µM | < 0.01 µM
10 | C#C[C@]1(O)CCC2C3CCc4cc(O)ccc4C3CC[C@@]21C (stereo partly drawn) | 52.4 µM | 6.76 µM |  | 85.1 µM | 22.4 µM | > 100 µM | 18.4 µM | 73 µM | 23.6 µM | 14.7 µM | 11.2 µM | 1.93 µM |  | 9.42 µM | 7.08 µM | 7.59 µM | 4.64 µM | 4.9 µM | 3.8 µM | 4 µM
11 | Nc1nc(/C=C\c2ccc([N+](=O)[O-])s2)nc(N2CCCC2)n1 | 17.2 µM | 44 µM | 5.23 µM | 10.9 µM | 28.5 µM | 21.6 µM | 20.9 µM |  | 24 µM | 30.4 µM | 4.72 µM | 15.1 µM | 1.57 µM | 0.743 µM | 12.3 µM | 3.01 µM | 7.17 µM |  | 2.76 µM | 8.24 µM
12 | COc1ccc(Nc2nnc(-c3cc(O)ccc3O)s2)cc1 | > 50 µM | > 50 µM |  | > 50 µM |  | > 50 µM | 43.6 µM | > 50 µM | 22.8 µM | 25.8 µM | 28.9 µM | 9.45 µM |  | > 50 µM |  | > 50 µM | 14.9 µM | > 50 µM | 11.3 µM | 12.6 µM
13 | O=C1C=CC(=O)c2cc3cc(CBr)ccc3cc21 | > 73.9 µM | 98.1 µM | > 100 µM | 3.71 µM | 29.3 µM | > 55 µM | 8.96 µM | 17.3 µM | 4.97 µM |  | 7.75 µM | 21.5 µM | 1.89 µM | 1.82 µM | 3.1 µM | 18.1 µM | 2.75 µM | 5.95 µM | 2.29 µM | 
